# Test results taken from article PMC9423655, “Huntington’s disease phenotypes are improved via mTORC1 modulation by small molecule therapy” (PLoS ONE, 2022).
# Key:
# [1] = biological target: T1, Sestrin2/GATOR2 interaction (Homo sapiens, UniProt P58004); test: Lysate-based (cell-free) Sestrin2/GATOR2 protein-protein interaction assay; assay type: binding; conditions: added to immunoprecipitated Sestrin2/GATOR2 complexes from amino acid-starved flag-WDR24 HEK293T cells, 10 minutes
# T1 construct: endogenous in cells; host or cells: Flag-WDR24 293T (HEK293T) cells
# T1 sequence (P58004 1-480): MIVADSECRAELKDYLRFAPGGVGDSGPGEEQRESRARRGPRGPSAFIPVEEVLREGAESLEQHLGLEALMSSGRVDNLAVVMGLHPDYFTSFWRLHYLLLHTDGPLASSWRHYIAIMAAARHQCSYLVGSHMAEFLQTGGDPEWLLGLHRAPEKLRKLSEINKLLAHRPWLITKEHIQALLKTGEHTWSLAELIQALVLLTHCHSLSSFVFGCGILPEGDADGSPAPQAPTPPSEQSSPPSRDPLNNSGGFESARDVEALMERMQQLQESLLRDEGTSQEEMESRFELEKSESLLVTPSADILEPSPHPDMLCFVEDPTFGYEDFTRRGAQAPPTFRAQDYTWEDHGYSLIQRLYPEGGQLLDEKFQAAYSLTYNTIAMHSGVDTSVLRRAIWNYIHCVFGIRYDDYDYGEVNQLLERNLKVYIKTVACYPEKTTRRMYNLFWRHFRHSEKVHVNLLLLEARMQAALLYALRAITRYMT
# Method: Flag-WDR24 293T cells were washed and placed in amino acid-free RPMI for 50 minutes. Cells were then rinsed once with ice-cold PBS and immediately lysed with Triton lysis buffer. The cell lysates were cleared by centrifugation at 13,200 rpm at 4°C in a microcentrifuge for 10 minutes. The anti-FLAG immunoprecipitations were performed as described above. Immunoprecipitated proteins (IPs) were resuspended in cytosolic buffer (40 mM HEPES pH 7.4, 140 mM KCl, 10 mM NaCl, 2.5 mM MgCl2, 0.1% TritonX-100) containing vehicle, NV-5297 or leucine at the indicated doses for 10 minutes. After compound incubation, IPs were collected by centrifugation, denatured, resolved by SDS-PAGE, and analyzed by immunoblotting.
# Next, Sestrin2/GATOR2 protein-protein interactions in response to NV-5297 were measured using cell-free assays and in vitro. For this, HEK293T cells stably expressing flag-WDR24, a component of GATOR2 [44], were used. The cell-free assays utilized Sestrin2/GATOR2 complexes immunoprecipitated from amino acid-starved cells with an anti-flag antibody.
# N171-82Q HD mice = test: Chronic 6-week treatment: echocardiography and heart weight; assay type: in vivo; conditions: N171-82Q mice, 160 mg/kg daily 6 weeks
# Excerpt: Animals were sacrificed by live decapitation one hour after the last oral dosing. Whole hearts were excised, blot-dried and weighed on an analytical balance. The heart was bisected transversely and the apical halves was preserved for cardiomyocyte and fibrosis staining. Left tibias were isolated and measured with an electronic caliper. The brain left hemisphere was preserved for MSN size measurement. The brain right hemisphere was microdissected and the medial pre-frontal cortex, striatum, cortex, hippocampus and cerebellum were collected.
# Mice were anesthetized with 2% isoflurane and restrained on a stage with electrocardiogram (EKG) sensors. Transthoracic echocardiograms were performed using the Vevo 3100 Imaging System with a linear array MX550D transducer. Images were acquired by an experienced echocardiographer and then analyzed offline using the Vevo LAB analysis software. Parasternal long axis views and short axis views were used to assess left ventricular function. Measurements were performed to evaluate left ventricular dimensions during both systole and diastole of the cardiac cycle. The Vevo LAB left ventricle [LV] analysis tool, LV trace, was used to calculate cardiac output [CO] (heart rate ∙ stroke volume), fractional shortening [FS] (ventricle diameter at the end of the diastole–ventricle diameter at the end of the systole), ejection fraction [EF] (percentage of blood ejected by the left ventricle by heart beat), stroke volume (SV) (blood volume ejected from the left ventricle per beat), heart rate [HR] (bpm), left ventricular mass [LVmass], dimensions and volumes. Both imaging and analysis were performed by an operator blinded to the mice experimental treatment.
# Fig 5 Oral dosing with NV-5297 over 6 weeks improves cardiac function and activates the mTORC1 pathway. […] (E) Quantification of the immunoblots for homogenized heart isolated 1 hour after oral dosing with NV-5297 (160 mg/kg; n = 14) normalized to loading control levels and further normalized to vehicle (Veh) treated mice (n = 15). […]
smiles,measurement,setting,value
"CC(C)(C[C@H](N)C(=O)O)C(F)(F)F [NV-5297, (S)-2-amino-5,5,5-trifluoro-4,4-dimethylpentanoic acid]",Sestrin2/GATOR2 interaction (GATOR2-associated Sestrin2),[1],disrupted the Sestrin2/GATOR2 interaction in a dose-dependent manner
same,heart mass,N171-82Q HD mice,no discernable effect
same,ejection fraction compared to vehicle,N171-82Q HD mice; echocardiography,increased
same,fractional shortening compared to vehicle,N171-82Q HD mice; echocardiography,increased
